Here are results for 4 molecules from ChEMBL document CHEMBL1201862, “PubChem BioAssay data set” (2004).

Some test systems named below: RPMI-8226; HOP-92; DU-145; UACC-62; EKVX; LOX IMVI; MDA-MB-231; CAKI-1; SK-MEL-28; MDA-N; SW-620; NCI-H460; HT-29; Malme-3M; HOP-62; SR; CCRF-CEM; SK-MEL-5; SF-268; KM12.
Common to all, as to assay: DTP human tumour cell line panel, 48 h

Molecules are shown by their SMILES.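 Interpolation was linear, between the two tested concentrations surrounding the appropriate level; five concentrations were tested over 48 hours in 96-well plates. GI50 marks 50% less growth.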 Calls of active or inactive are those of the source. No stated cut-off is given here; in the data, active = GI50 up to about 1.1 µM and inactive = higher.

For the molecule `CCOP(=O)(OCC)C(Nc1cccc(F)c1)c1ccc(N(C)C)cc1` (stereo not given), the GI50 was 67.6 µM (inactive) with RPMI-8226; 18 µM (inactive) in the assay with HOP-92; > 100 µM (inactive) in the assay on DU-145; 50.4 µM (inactive) with UACC-62; 99.1 µM (inactive) in the assay with EKVX; 70.5 µM (inactive) with LOX IMVI. Besides, the GI50 with MDA-MB-231 is 78.2 µM (inactive); with CAKI-1, > 100 µM (inactive); in the assay with SK-MEL-28, > 100 µM (inactive); in the assay with MDA-N, > 100 µM (inactive); with SW-620, > 100 µM (inactive); with NCI-H460, 63 µM (inactive). Further, the GI50 in the assay on HT-29 was 59.2 µM (inactive); with Malme-3M, > 100 µM (inactive); in the assay on HOP-62, > 100 µM (inactive); in the assay with SR it was > 100 µM (inactive); in the assay on CCRF-CEM, 90.4 µM (inactive); in the assay on SK-MEL-5 it was 71 µM (inactive). Further, the GI50 in the assay with SF-268 and with KM12 was > 100 µM (inactive) throughout.

As to `CCCC(CC)c1cc(O)c(O)cc1C(CC)CCC` (stereo not given), the GI50 in the assay with RPMI-8226, with HOP-92, with DU-145, with UACC-62, with EKVX and with LOX IMVI was > 10 µM (inactive) in each case. Further, the GI50 with MDA-MB-231, in the assay on CAKI-1, with SK-MEL-28, in the assay on MDA-N, in the assay with SW-620 and in the assay on NCI-H460 was > 10 µM (inactive) in each case. The GI50 in the assay on HT-29, in the assay with Malme-3M, with HOP-62, in the assay with SR, in the assay with CCRF-CEM and in the assay with SK-MEL-5 was > 10 µM (inactive) each time. Moreover, the GI50 with SF-268 and in the assay on KM12 was > 10 µM (inactive) throughout.

In the case of `CCC1CN2CCc3c([nH]c4ccccc34)[C@@](C(=O)OC)(c3cc4c(cc3OC)N(C)C3C(O)(C(=O)OC)C(C(=O)OC)C5(CC)C=CCN6CCC43C65)C[C@@H](C2)[C@@H]1C(C)(C)C` (stereo not given in full), the GI50 is 0.469 µM (active) with RPMI-8226; 1.03 µM (active) in the assay on HOP-92; 0.342 µM (active) in the assay with DU-145; 0.494 µM (active) in the assay on UACC-62; 1.98 µM (inactive) in the assay on EKVX; 0.34 µM (active) in the assay on LOX IMVI. Further, the GI50 with MDA-MB-231 is 0.407 µM (active); in the assay with CAKI-1 it was 4.27 µM (inactive); with SK-MEL-28 it was 0.652 µM (active); in the assay with MDA-N, 0.187 µM (active); in the assay on SW-620, 0.33 µM (active); in the assay with NCI-H460, 0.393 µM (active). Also, the GI50 in the assay on HT-29 is 0.328 µM (active); in the assay on Malme-3M, 0.486 µM (active); in the assay with HOP-62, 0.257 µM (active); with SR it was 0.473 µM (active); in the assay on CCRF-CEM it was 0.348 µM (active); in the assay on SK-MEL-5, 0.274 µM (active). Further, the results for the GI50 with SF-268 and in the assay on KM12 were 0.615 µM (active) and 0.419 µM (active), respectively.

On to `COC(=O)c1cc(C(=CCC[C@H]2CC[C@@]3(C)C(CCC4C3CC[C@@]3(C)C4CC[C@@H]3C(C)CCCC(C)C)C2)c2cc(Cl)c(O)c(C(=O)OC)c2)cc(Cl)c1O` (stereo not given in full), for which the GI50 in the assay on RPMI-8226, with HOP-92, in the assay on DU-145, with UACC-62, with EKVX and in the assay with LOX IMVI was > 10 µM (inactive) in each case. For the same molecule, the GI50 in the assay on MDA-MB-231, in the assay with CAKI-1, in the assay with SK-MEL-28, in the assay with MDA-N, in the assay on SW-620 and in the assay with NCI-H460 was > 10 µM (inactive) in each case. Besides, the GI50 in the assay on HT-29, in the assay on Malme-3M, with HOP-62, in the assay with SR, in the assay with CCRF-CEM and in the assay with SK-MEL-5 was > 10 µM (inactive) each time. The GI50 with SF-268 and in the assay on KM12 was > 10 µM (inactive) throughout.
